{"source": "patent US6689343B1", "about": "“Hemostatic and acid etch compositions containing sucralose” (Ultradent Products, Inc., priority 2002, dated 2004)", "experiment": "Storage stability of sucralose in the acidic composition", "type": "physicochemical", "details": "highly acidic in water"}
{"smiles": "OC[C@H]1O[C@H](O[C@]2(CCl)O[C@H](CCl)[C@@H](O)[C@@H]2O)[C@H](O)[C@@H](O)[C@H]1Cl", "note": "[sucralose, 1,6-dichloro-1,6-dideoxy-β-D-fructo-furanosyl-4-chloro-4-deoxy-α-D-galactopyranoside]", "values": [{"measurement": "stability in the presence of hemostatic or dental etching agents", "value": "stable"}]}
